Legend:
[1] = Stability of Gln measured by production of free ammonia in 0.2 M phosphate buffer; type: physicochemical
[2] = In vitro stability of glutamine by incubation in 0.2 M phosphate buffer at pH 9.0; type: physicochemical; details: pH 9.0, 37° C., same conditions
Protocol: The product of Example 2 was tested for stability and compared to monomeric glutamine by incubation in 0.2 M phosphate buffer at pH 9.0 as described by Price and Greenstein (J. Biol. Chem. vol. 180. p. 209, 1949), incorporated herein by reference.

[3] = system: cultured human amniocytes; details: 0.8% solution in alpha-MEM without glutamine, with insulin and transferrin, pH 7.2

Stability of Gln, production of free ammonia (result in words) [1]	Compound	Stability of glutamine (result in words) [2]	Growth of cultured cells with no addition of monomeric L-glutamine [3]
almost completely de-amidated	NC(=O)CC[C@H](N)C(=O)O [monomeric glutamine, glutamine]	extensive degradation to ammonia and pyrrolidonecarboxylic acid	
	Glutamic Acid/Glutamine Co-Polymer [Example 19]		support growth of cultured human amniocytes, through multiple passages
